Measurements published in patent publication US8758769B2, “Composition for preventing and treating acetaminophen inducing liver injury comprising the protein extract from Porphyra yezoensis” (Pukyong National University Industry Academic Cooperation …, priority 2006, dated 2014).

What was measured:
[1] = system: caspase-3; assay: Caspase-3 activity in the liver tissue (DEVD-pNA substrate); type: in vivo, rat; details: rats, AAP 700 mg/kg; control group 100%
Protocol: Accordingly, to confirm the cell apoptosis when generating the liver injury by AAP, the activity of the caspase-3 is measured. For this, the liver tissue is homogenized by the lysis buffer (25 mM HEPES, pH 7.5, 5 mM EDTA, 2 mM DTT, 0.1% CHAPS) containing the protease inhibitor and centrifuged by 14,000×g at 4° C. The protein concentration of the obtained upper solution is measured by a BCA protein assay kit. Thereafter, 80[…] of protein is inserted into the 96-well, then the DEVD-pNA substrate is inserted, thereafter, a reaction is progressed for 4 hours at 37° C. The absorbance is measured at 405 nm.

[2] = system: GSH (Glutathione) in the liver tissue; assay: Glutathione content in the liver tissue; type: in vivo, rat; details: rats, AAP 700 mg/kg; compared with the control group of 100%
Protocol: Accordingly, the GSH activity in the liver tissue is measured. For this, the liver tissue is homogenized by 5% of sulfosalicylic acid, then frozen by the liquid nitrogen and thereafter a thaw process is executed repeatedly by twice in a cistern of 37° C. Thereafter, the defrosted liver tissue is left for 5 minutes At 4° C. and centrifuged at 4° C., 1,000×g, for 10 minutes, so that the upper solution is obtained. The upper solution and the standard solution within the GSH assay kit are divided into a 96-well plate, respectively, thereafter a working mixture is added to the 96-well plate, and a reaction is progressed at the room temperature for 5 minutes. After 5 minutes, NADPH is inserted into the above plate and mixed through a pipet and then the absorbance is measured by the interval of 5 minutes at 412 nm.

[3] = system: HepG2 liver cell; assay: LDH activity, toxicity of HepG2 liver cell by AAP treatment; type: cell-based; details: HepG2, AAP 10, 20 and 40 mM
Protocol: To examine the toxicity of the liver cell by the AAP treatment, the activity of LDH is measured. That is, 100[…] per a well with the concentration of 2×10^4 cells/ml is divided into 96-well microplates (palcon, USA) and cultured. After 24 hours, a medium is replaced with an MEM medium including 1% FBS, then cultured again for 24 hours, and thereafter treated by an assay medium of 100[…] and AAP 100[…] (10, 20 and 40 mM). The obtained upper solution of 100[…] is moved into a new 96-well microplate, then 100[…] of the reaction mixture (solution I 250[…]+solution II 11.25[…]) is added to the new 96-well microplate. Thereafter, at the state that the light is intercepted by foil, a reaction is progressed for 30 minutes at 15˜25° C. Thereafter, the absorbance at 490 nm is measured by using an automatic ELIZA reader.

[4] = system: GOT and GPT in the serum; assay: GOT and GPT in serum; type: in vivo, rat; details: rats, AAP 700 mg/kg, 24 hours
Protocol: GOT and GPT in the serum as liver function indicators are enzymes which reflect the change and necrosis of the liver cell and spilled in great quantities in the blood when damaging the liver tissue. GOT/GPT in the serum are measured by using a kit for measuring GOT (Glutamic oxaloacetic transaminase) and GPT (Glutamic pyruvic transaminase) activity measuring serum transaminase (Shinyang Chemistry, Republic of Korea) manufactured by Retiman-Frankle's manner through a spectrum photometer (Ultrospec 2001 pro. amersham phamasia biotech, United Kingdom) at 505 nm and then the result is shown in FIG. 4.

[5] = system: HepG2 liver cell; assay: Proliferation of HepG2 liver cell by AAP treatment (MTS/MTT); type: cell-based; details: AAP in serum free medium, 24 hours and 48 hours, FIG. 7
Protocol: The used HepG2 liver cell is distributed by ATCC (American Type Culture Center).
Antibiotics (penicillin/streptomycin) of 100 units/ml is added to an MEM medium and then filtrated by a filter of 0.22[…]. Before the culture, FBS (Fetal bovine serum) is added, thereby obtaining the final concentration of 10%. The cell is cultured in a 5% CO2 incubator at 37° C. During the culture of the cell, the medium is replaced by twice a week and when the medium is a confluent state, the medium is washed by PBS (Phosphate Buffered Saline). Thereafter, the attached cells are separated by 0.05% of trypsin solution and centrifuged, then each cell is mixed, dispersed properly by using a pipet and divided identically.
To examine the cell proliferation and the toxicity, the HepG2 liver cell is controlled by concentration of 5×10^4 cells/ml, and divided into 96-well microplates (palcon, USA) by 100[…] per a well and cultured. After 24 hours, a medium is replaced with a serum free medium and then cultured again for 24 hours. A protein sample is dissolved into the serum free medium, then diluted until 0.01% concentration. The dilution solution by each concentration is added to each cell line and cultured for 24 hours at the 5% CO2 incubator at 37° C. […] Thereafter, the absorbance at 490 nm is measured by using an automatic ELIZA reader and the cell survival ratio is calculated by a calculation formula 1. […]

[6] = system: liver tissue of a rat; assay: Liver appearance and H&E histology of liver tissue, AAP induced liver injury; type: in vivo; details: rats, AAP 700 mg/kg abdominal administration, 24 hours
Protocol: For this, the liver tissue of the white rat bred by each experiment group is extracted and lightly washed by the saline solution so that blood is removed. A portion of the liver tissue is cut and then the cut liver tissue is cut into thickness of 0.5 cm and fixed into Bouin fixation solution. Thereafter, the cut liver tissue is inserted into a tissue capsule within 24 hours by using the same fixation solution and fixed again. Thereafter, the fixed tissue is washed, inserted into an autotechnicon, dehydrated in the sequencing concentration alcohol and processed transparently by xylene. At an embedding center, paraffin is infiltrated into the tissue capsule and an embedding process is performed, so that a block is manufactured. The block is cut thinly with thickness of 5[…] by a rotary microtome and the cut blocks are left in a floating thermostat in order to be spreaded fully and then attached onto a clean slide glass. Thereafter, to firmly adhere the slide glass and the tissue cut pieces, the slide glass with the tissue cut pieces is left at a slide warmer maintaining temperature of about 60° C. Finally, to basically observe the arrangement of cell and the morphological change, all tissue pieces are dyed by Hematoxylin & Eosin capable of separately seeing the nucleus and cytoplasm and thereafter, observed by an optical microscopy.

SMILES: CC(=O)Nc1ccc(O)cc1 [AAP, Acetaminophen]
- Activity of caspase-3 in the liver tissue [1]: 143.38±10.25%
- GSH content in the liver tissue [2]: 85.39±4.81%
- Activity of LDH (degree of liver cell injury) [3]: increased in proportion to the AAP concentration
- GPT in serum ([4]; control group 28.83±7.9): 44.83±11.7 karmen
- GOT in serum ([4]; control group 158.97±13.4): 187.95±20.7 karmen
- Proliferation of the HepG2 liver cell [5]: inhibited according to increase of the AAP concentration and the culture time
- Colour/appearance of the liver (degree of liver injury, FIG. 2) [6]: the liver tissue represents the bright brown
- Inside of the liver tissue by optical microscopy, H&E dyeing (FIG. 3) [6]: plural nucleus decomposition positions are observed about the central vein
